# In patent publication US11331299B2, “Medicinal use of serrulatane diterpenes” (The University of Sydney, priority 2016, dated 2022):
# Read-outs that look alike come from different tables or passages of the source.
# System: 280 human cancer cell lines
# Test: OncoPanel cell proliferation assay (10-day)
# Format: cell-based
# Conditions: Homo sapiens; for GI50: read-out: Cell Count GI50; for IC50: read-out: Cell Count IC50; for EC50: read-out: Cell Count EC50
# [1] = KHOS-240S, Soft Tissue - Osteosarcoma
# [2] = ME-180, ME-180, Female GU - Ovary
# [3] = MG-63, MG-63, Soft Tissue - Osteosarcoma
# [4] = MHH-PREB-1, MHH-PREB-1, Leukemia
# [5] = MIA PaCa-2, Mia PaCa-2, Pancreas
# [6] = MS751, MS751, Female GU - Ovary
# [7] = Malme-3M, MALME3M, Skin (Melanoma)
# [8] = NCI-H292, NCI-H292, Lung - NSCLC
# [9] = NCI-H441, NCIH441, Lung - NSCLC
# [10] = NCI-H460, NCI-H460, Lung - NSCLC
# [11] = NCI-H520, NCI-H520, Lung - NSCLC
# [12] = NCI-H596, NCI-H596, Lung - NSCLC
# [13] = NCI-H661, NCI-H661, Lung - NSCLC
# [14] = NTERA-2-cl-D1, NTERA-2 cl.D1, Testis
# [15] = OVCAR-3, OVCAR3, Female GU - Ovary
# [16] = RPMI-7951, RPMI-7951, Skin (Melanoma)
# [17] = SAOS-2, SaOS2, Soft Tissue - Osteosarcoma
smiles,measurement,setting,value
"CC(C)=CCC[C@H](CO)[C@@H]1CC[C@@H](C)c2c1cc(C)c(O)c2O [Compound 1, 7,8,18-trihydroxyserrulat-14-ene]",GI50,[1],950 nM
same,IC50,[1],950 nM
same,EC50,"KLE, Female GU - Uterus",3700 nM
same,GI50,"KLE, Female GU - Uterus",3560 nM
same,IC50,"KLE, Female GU - Uterus",3820 nM
same,EC50,"KPL-1, KPL-1, Breast",810 nM
same,GI50,"KPL-1, KPL-1, Breast",810 nM
same,IC50,"KPL-1, KPL-1, Breast",810 nM
same,EC50,"KU812, KU812, Leukemia",2810 nM
same,GI50,"KU812, KU812, Leukemia",2570 nM
same,IC50,"KU812, KU812, Leukemia",2810 nM
same,EC50,"L-428, L-428, Lymphoma",1080 nM
same,GI50,"L-428, L-428, Lymphoma",1080 nM
same,IC50,"L-428, L-428, Lymphoma",1090 nM
same,EC50,"LNCaP, Prostate",3900 nM
same,GI50,"LNCaP, Prostate",3470 nM
same,IC50,"LNCaP, Prostate",3900 nM
same,EC50,"LS-123, LS123, Colon",1130 nM
same,GI50,"LS-123, LS123, Colon",1030 nM
same,IC50,"LS-123, LS123, Colon",1160 nM
same,EC50,"LS-411N, LS411N, Colon",8720 nM
same,GI50,"LS-411N, LS411N, Colon",8510 nM
same,IC50,"LS-411N, LS411N, Colon",8720 nM
same,EC50,"LS-1034, LS1034, Colon",1870 nM
same,GI50,"LS-1034, LS1034, Colon",1830 nM
same,IC50,"LS-1034, LS1034, Colon",1870 nM
same,EC50,"M059J, CNS - Glioma",3090 nM
same,GI50,"M059J, CNS - Glioma",3020 nM
same,IC50,"M059J, CNS - Glioma",3090 nM
same,EC50,"MC116, MC116, Lymphoma",3790 nM
same,GI50,"MC116, MC116, Lymphoma",3780 nM
same,IC50,"MC116, MC116, Lymphoma",3790 nM
same,EC50,"MC-IXC, CNS - Neuroblastoma",4010 nM
same,GI50,"MC-IXC, CNS - Neuroblastoma",4000 nM
same,IC50,"MC-IXC, CNS - Neuroblastoma",4010 nM
same,EC50,"MCF7, MCF7, Breast",1370 nM
same,GI50,"MCF7, MCF7, Breast",1350 nM
same,IC50,"MCF7, MCF7, Breast",1370 nM
same,EC50,"MDA-MB-231, MDA MB 231, Breast",1470 nM
same,GI50,"MDA-MB-231, MDA MB 231, Breast",1470 nM
same,IC50,"MDA-MB-231, MDA MB 231, Breast",1480 nM
same,EC50,"MDA-MB-436, MDA-MB-436, Breast",2680 nM
same,GI50,"MDA-MB-436, MDA-MB-436, Breast",2670 nM
same,IC50,"MDA-MB-436, MDA-MB-436, Breast",2690 nM
same,EC50,"MDA-MB-453, MDA MB 453, Breast",780 nM
same,GI50,"MDA-MB-453, MDA MB 453, Breast",770 nM
same,IC50,"MDA-MB-453, MDA MB 453, Breast",780 nM
same,EC50,"MDA-MB-468, MDA MB 468, Breast",2750 nM
same,GI50,"MDA-MB-468, MDA MB 468, Breast",2740 nM
same,IC50,"MDA-MB-468, MDA MB 468, Breast",2760 nM
same,EC50,[2],2250 nM
same,GI50,[2],2210 nM
same,IC50,[2],2260 nM
same,EC50,"MEG-01, MEG01, Leukemia",7350 nM
same,GI50,"MEG-01, MEG01, Leukemia",7220 nM
same,IC50,"MEG-01, MEG01, Leukemia",7350 nM
same,EC50,"MES-SA, Soft Tissue - Sarcoma",1230 nM
same,GI50,"MES-SA, Soft Tissue - Sarcoma",1220 nM
same,IC50,"MES-SA, Soft Tissue - Sarcoma",1230 nM
same,EC50,[3],9240 nM
same,GI50,[3],9160 nM
same,IC50,[3],9240 nM
same,EC50,[4],6170 nM
same,GI50,[4],6170 nM
same,IC50,[4],6170 nM
same,EC50,[5],2970 nM
same,GI50,[5],2970 nM
same,IC50,[5],2970 nM
same,EC50,"MOLT-3, MOLT-3, Leukemia",2130 nM
same,GI50,"MOLT-3, MOLT-3, Leukemia",2110 nM
same,IC50,"MOLT-3, MOLT-3, Leukemia",2130 nM
same,EC50,"MOLT-16, MOLT-16, Leukemia",1840 nM
same,GI50,"MOLT-16, MOLT-16, Leukemia",1840 nM
same,IC50,"MOLT-16, MOLT-16, Leukemia",1840 nM
same,EC50,[6],2230 nM
same,GI50,[6],2210 nM
same,IC50,[6],2230 nM
same,EC50,"MT-3, Colon",3670 nM
same,GI50,"MT-3, Colon",3660 nM
same,IC50,"MT-3, Colon",3670 nM
same,EC50,"MV4-11, MV-4-11, Leukemia",3580 nM
same,GI50,"MV4-11, MV-4-11, Leukemia",3570 nM
same,IC50,"MV4-11, MV-4-11, Leukemia",3580 nM
same,EC50,"MX1, Leukemia",1290 nM
same,GI50,"MX1, Leukemia",1290 nM
same,IC50,"MX1, Leukemia",1290 nM
same,EC50,[7],1790 nM
same,GI50,[7],1660 nM
same,IC50,[7],1790 nM
same,EC50,"MeWo, Skin (Melanoma)",1320 nM
same,GI50,"MeWo, Skin (Melanoma)",1310 nM
same,IC50,"MeWo, Skin (Melanoma)",1320 nM
same,EC50,"NALM-6, NALM-6, Leukemia",1810 nM
same,GI50,"NALM-6, NALM-6, Leukemia",1810 nM
same,IC50,"NALM-6, NALM-6, Leukemia",1810 nM
same,EC50,"NAMALWA, Lymphoma",3390 nM
same,GI50,"NAMALWA, Lymphoma",3390 nM
same,IC50,"NAMALWA, Lymphoma",3390 nM
same,EC50,"NCI-H69, NCI-H69, Lung - SCLC",6300 nM
same,GI50,"NCI-H69, NCI-H69, Lung - SCLC",5840 nM
same,IC50,"NCI-H69, NCI-H69, Lung - SCLC",6440 nM
same,EC50,[8],3200 nM
same,GI50,[8],3180 nM
same,IC50,[8],3200 nM
same,GI50,"NCI-H295R, Endocrine - Adrenal gland",13500 nM
same,EC50,[9],12100 nM
same,GI50,[9],11700 nM
same,IC50,[9],12100 nM
same,EC50,"NCI-H446, NCIH446, Lung - SCLC",10300 nM
same,GI50,"NCI-H446, NCIH446, Lung - SCLC",10000 nM
same,IC50,"NCI-H446, NCIH446, Lung - SCLC",10300 nM
same,EC50,[10],2340 nM
same,GI50,[10],2330 nM
same,IC50,[10],2340 nM
same,EC50,"NCI-H508, NCI-H508, Colon",14400 nM
same,GI50,"NCI-H508, NCI-H508, Colon",14300 nM
same,IC50,"NCI-H508, NCI-H508, Colon",14400 nM
same,EC50,[11],2430 nM
same,GI50,[11],2410 nM
same,IC50,[11],2430 nM
same,EC50,[12],8780 nM
same,GI50,[12],8410 nM
same,IC50,[12],8780 nM
same,EC50,[13],2280 nM
same,GI50,[13],2280 nM
same,IC50,[13],2290 nM
same,EC50,"NCI-H747, NCI-H747, Colon",3090 nM
same,GI50,"NCI-H747, NCI-H747, Colon",3100 nM
same,IC50,"NCI-H747, NCI-H747, Colon",3110 nM
same,EC50,[14],2250 nM
same,GI50,[14],2200 nM
same,IC50,[14],2250 nM
same,EC50,"OCUG-1, OCUG-1, Liver",4300 nM
same,GI50,"OCUG-1, OCUG-1, Liver",4290 nM
same,IC50,"OCUG-1, OCUG-1, Liver",4300 nM
same,EC50,"OE19, OE19, Head and Neck",3230 nM
same,GI50,"OE19, OE19, Head and Neck",3210 nM
same,IC50,"OE19, OE19, Head and Neck",3230 nM
same,EC50,"OE21, OE21, Head and Neck",3680 nM
same,GI50,"OE21, OE21, Head and Neck",3670 nM
same,IC50,"OE21, OE21, Head and Neck",3680 nM
same,EC50,[15],1530 nM
same,GI50,[15],1520 nM
same,IC50,[15],1570 nM
same,EC50,"PA-1, Female GU - Ovary",4210 nM
same,GI50,"PA-1, Female GU - Ovary",4210 nM
same,IC50,"PA-1, Female GU - Ovary",4210 nM
same,EC50,"PANC-1, PANC-1, Pancreas",2870 nM
same,GI50,"PANC-1, PANC-1, Pancreas",2830 nM
same,IC50,"PANC-1, PANC-1, Pancreas",2870 nM
same,EC50,"PC-3, Prostate",3880 nM
same,GI50,"PC-3, Prostate",3860 nM
same,IC50,"PC-3, Prostate",3880 nM
same,EC50,"PFSK-1, PFSK-1, CNS - Glioma",4320 nM
same,GI50,"PFSK-1, PFSK-1, CNS - Glioma",4310 nM
same,IC50,"PFSK-1, PFSK-1, CNS - Glioma",4330 nM
same,EC50,"PSN1, PSN-1, Pancreas",2320 nM
same,GI50,"PSN1, PSN-1, Pancreas",2320 nM
same,IC50,"PSN1, PSN-1, Pancreas",2320 nM
same,EC50,"RD, Soft Tissue - Sarcoma",810 nM
same,GI50,"RD, Soft Tissue - Sarcoma",810 nM
same,IC50,"RD, Soft Tissue - Sarcoma",810 nM
same,EC50,"RKO, Colon",1690 nM
same,GI50,"RKO, Colon",1690 nM
same,IC50,"RKO, Colon",1690 nM
same,EC50,"RKOE6, RKOE6, Colon",1720 nM
same,GI50,"RKOE6, RKOE6, Colon",1720 nM
same,IC50,"RKOE6, RKOE6, Colon",1720 nM
same,EC50,"RPMI-6666, RPMI 6666, Lymphoma",3530 nM
same,GI50,"RPMI-6666, RPMI 6666, Lymphoma",3440 nM
same,IC50,"RPMI-6666, RPMI 6666, Lymphoma",3530 nM
same,EC50,[16],700 nM
same,GI50,[16],700 nM
same,IC50,[16],700 nM
same,EC50,"RPMI-8226, RPMI 8226, Myeloma",680 nM
same,GI50,"RPMI-8226, RPMI 8226, Myeloma",670 nM
same,IC50,"RPMI-8226, RPMI 8226, Myeloma",680 nM
same,EC50,"RS4-11, RS4, 11, Leukemia",1770 nM
same,GI50,"RS4-11, RS4, 11, Leukemia",1710 nM
same,IC50,"RS4-11, RS4, 11, Leukemia",1770 nM
same,EC50,"Raji, Lymphoma",4600 nM
same,GI50,"Raji, Lymphoma",4590 nM
same,IC50,"Raji, Lymphoma",4600 nM
same,EC50,"Ramos, Ramos (RA 1), Lymphoma",2960 nM
same,GI50,"Ramos, Ramos (RA 1), Lymphoma",2960 nM
same,IC50,"Ramos, Ramos (RA 1), Lymphoma",2960 nM
same,EC50,[17],1980 nM
same,GI50,[17],2040 nM
same,IC50,[17],2100 nM
same,EC50,"SCC-4, SCC-4, Head and Neck",4660 nM
same,GI50,"SCC-4, SCC-4, Head and Neck",4630 nM
same,IC50,"SCC-4, SCC-4, Head and Neck",4720 nM
same,EC50,"SCC-9, SCC-9, Head and Neck",3440 nM
same,GI50,"SCC-9, SCC-9, Head and Neck",3440 nM
same,IC50,"SCC-9, SCC-9, Head and Neck",3450 nM
same,EC50,"SCC-25, SCC-25, Head and Neck",3940 nM
same,GI50,"SCC-25, SCC-25, Head and Neck",3950 nM
same,IC50,"SCC-25, SCC-25, Head and Neck",3960 nM
same,EC50,"SCaBER, Bladder",3120 nM
same,GI50,"SCaBER, Bladder",3100 nM
same,IC50,"SCaBER, Bladder",3120 nM
same,EC50,"SH-4, Skin (Melanoma)",1950 nM
